Measurements from patent publication US20230391824A1, “RATIONALE, DESIGN, SYNTHESIS AND VALIDATION OF A SMALL MOLECULE ANTICANCER AGENT” (priority 2021, published 2023).

Key:
[1] = test system: NT-2 testicular cancer cells; assay: Flow cytometric (propidium iodide) cell cycle analysis of NT-2 cells; assay type: cell-based; details: first 24h
Protocol: FIG. 9: NT-2, testicular cancer cells, were incubated with Compound of formula (I) isomers for 24h and subjected to Flow Cytometric analysis to determine the alterations in cancer cell cycle. […] Therefore, only the P1 isomer of Compound of formula (I) was investigated further to determine its in vitro and in vivo efficacy.
The method for Propidium Iodide (PI) based cell cycle analysis was performed as per the instructions given by the manufacturer (AB139418; Abcam). Briefly NT-2 cells treated with Compound of formula (I) versions were harvested in single cell suspensions with each experimental condition containing two million cells, fixed in 66% Ethanol overnight at 4° C. The ethanol was removed thoroughly by centrifugation, followed by rehydration of cells in PBS with a repeat of centrifugation. Cells were stained in PI (1%) and RNase solution (1%) in PBS for 30 minutes at 37° C. in the dark. The cells were analyzed immediately on the Flow Cytometer.

[2] = test system: YP-MEL NCM tumor; assay: YP-MEL NCM tumor xenograft in SCID mice; assay type: in vivo; details: female SCID mice, 4 mg/kg I.P, every 2 days
Protocol: FIG. 13A&B: Female SCID YP-MEL NCM tumor bearing mice treated with 4 mg/kg Compound of formula (I) (P1 version) intraperitoneally (I.P). […] (B) Tumor areas were measured with a Vernier caliper (prior to each treatment cycle). Animals were euthanized when the control (0.1% DMSO:PBS) treated mice reached the defined endpoint of 225 mm^2. Data representative of at least 5 independent experiments.
All animal procedures were carried out in accordance with the guidelines of the Canadian Council on Animal Care and the NIH guidelines on the care and use of laboratory animals. All protocols were reviewed and approved by the Animal Care Committee of the University of Calgary (Protocol approval number: AC21-0147). Six- to eight-week-old female or male CB17 severe combined immunodeficiency (SCID) mice (Charles River Laboratories, Saint-Constant, QC, Canada) were subcutaneously injected in the right flank with 3×10^6 YP-MEL or NT-2 cells suspended in 0.1 mL sterile PBS. After tumor injection, animals with detectable tumor growth of at least 50 mm^2 were randomized into groups. […] Animals and respective cages were monitored for food and bedding supplies daily; doses were injected every 2 days and tumor areas were measured with a Vernier caliper (prior to each treatment cycle). […]

[3] = test system: NT-2 testicular tumor; assay: NT-2 testicular tumor xenograft in SCID mice; assay type: in vivo; details: male SCID mice; for growth of NT-2 tumors: every 2 days
Protocol: FIG. 14A-C: Male SCID NT-2 testicular tumor bearing mice treated with 4 mg/kg Compound of formula (I) (P1 version) via oral route of administration (P.O). […] Tumor areas were measured with a Vernier caliper (prior to each treatment cycle). Animals were euthanized when the control (0.1% DMSO:PBS) treated mice reached the defined endpoint of 225 mm^2. Data representative of at least 5 independent experiments. […] (B) is a graph depicting percentage change of tumour volume versus days after the first treatment. (C) is a graph depicting percentage survival versus days after the first treatment.
FIG. 15A-D: Male SCID NT-2 testicular tumor bearing mice treated with 4 mg/kg Compound of formula (I) (P1 version) via intraperitoneal route of administration (I.P). […] Tumor areas were measured with a Vernier caliper (prior to each treatment cycle). Animals were euthanized when the control (0.1% DMSO:PBS) treated mice reached the defined endpoint of 225 mm^2. Data representative of at least 5 independent experiments. […] (B) is a graph depicting percentage of tumour size versus days after the first treatment. (C) is a graph depicting percentage survival versus days after the first treatment. (D) is a photograph showing excised tumours.
FIG. 16A&B: Male SCID NT-2 testicular tumor bearing mice treated with 4 mg/kg Compound of formula (I) (P1 isomer) via intravenous route of administration (I.V). […] Tumor areas were measured with a Vernier caliper (prior to each treatment cycle). Animals were euthanized when the control (0.1% DMSO:PBS) treated mice reached the defined endpoint of 225 mm^2. Data representative of at least 5 independent experiments. (A) is a photograph showing excised tumours. (B) is graph depicting percentage of tumor size versus number of treatments.
All animal procedures were carried out in accordance with the guidelines of the Canadian Council on Animal Care and the NIH guidelines on the care and use of laboratory animals. All protocols were reviewed and approved by the Animal Care Committee of the University of Calgary (Protocol approval number: AC21-0147). Six- to eight-week-old female or male CB17 severe combined immunodeficiency (SCID) mice (Charles River Laboratories, Saint-Constant, QC, Canada) were subcutaneously injected in the right flank with 3×10^6 YP-MEL or NT-2 cells suspended in 0.1 mL sterile PBS. After tumor injection, animals with detectable tumor growth of at least 50 mm^2 were randomized into groups. The groups were treated with either 0.1% DMSO:PBS vehicle or 4 mg/kg of Compound of formula (I) dissolved in the vehicle, intraperitoneally (I.P), orally (P.O) or intravenously (I.V). Animals and respective cages were monitored for food and bedding supplies daily; doses were injected every 2 days and tumor areas were measured with a Vernier caliper (prior to each treatment cycle). When vehicle treated tumors reached the defined endpoint of 225 mm^2, every mouse in the group were euthanized. Tumors were excised and immediately imaged and processed for western blotting or fixed in paraformaldehyde for toxicology evaluation. (A)

CC[C@H](C)[C@H](NC(=O)[C@H](Cc1ncc[nH]1)NC(=O)c1cccc(C(N)=O)c1)C(=O)Nc1ccc(O)c(-c2nc3ccccc3s2)c1 [Compound P1]
share of total cell count that had undergone cell death [1]: approximately 10% | growth of NCM tumors [2]: significantly reduced the growth | treated animals that survived tumor-free for 120 days ([3]; 4 mg/kg I.P): at least 50% | growth of NT-2 tumors ([3]; 4 mg/kg I.P): significantly reduced the growth | growth of NT-2 tumors ([3]; 4 mg/kg I.V): significantly reduced the growth | tumor shrinkage ([3]; 4 mg/kg I.V, with only 4 doses): in some cases showed complete shrinkage | growth of NT-2 tumors ([3]; 4 mg/kg P.O): significantly reduced the growth
